Reference: patent US20240358692A1, “TREATMENT OF SCLERODERMA” (Aisa Pharma, Inc., priority 2023, published 2024)

Assays:
participants with SSc-RP [1] = experiment: SHAQ - Visual Analog Scale - Pain; type: in vivo, human
Text: The standard, validated, patient reported outcome measures tool for SSc patients, the Scleroderma Health Assessment Questionnaire (SHAQ), will be used to assess the participant qualify of life. Details are attached in the Appendix. The participant quality of life will be scored, and a disability index calculated for each questionnaire completed by the patient at Screening and each in-clinic visit. The absolute change in participant quality of life from baseline to the end of each dosing period will be calculated similar to frequency data as before.
The standard, validated, patient reported outcome measures tool for SSc patients, the SHAQ, was collected at the time points specified in the study schedules (FIG. 2 and FIGS. 4A and 4B) to assess the participant's quality of life. The SHAQ included a Raynaud's VAS that will also be reported separately.
Pain on the SHAQ outcome measure on the first line in table F is a composite of all pain experienced in patients with SSc, comprising joint pain, back pain, headache, odynophagia, skin ulcer related discomfort, Raynaud's, and neuropathic pain. Aisa Pharma believes, based on the biologic attributes and actions of cilnidipine that differ from most dihydropyridine calcium channel antagonists that cilnidipine might have direct analgesic effects in certain pain conditions and in fact has been designated to receive evaluation through the […] Preclinical Pain Screening Platform Program to investigate the drug in multiple in vitro and in vivo preclinical models of pain that are validated and predictive of effects in man.

participants with SSc-RP [2] = experiment: SHAQ - Alternative Disability Index; type: in vivo, human; parameters: key to SHAQ Alternative Disability Index, In-Clinic Visit (Day 12), Median: mean of 8 category scores, 0 = no difficulty to 3 = unable to do; settings: for % change in Alternative Disability Index: SHAQ, mITT Part A; for alternative disability index, Change from Baseline, Mean / alternative disability index, Change from Baseline, Median / alternative disability index, Percent Change from Baseline, Mean / alternative disability index, Percent Change from Baseline, Median / alternative disability index, In Clinic Visit (Day 12), Mean / alternative disability index, In Clinic Visit (Day 12), Median: Modified ITT Population-Part A, tadalafil 5 mg, alone or combined as labelled
Text: The SHAQ is used to calculate a Disability Index to assess the participant qualify of life. The eight categories assessed by the Disability Index are 1) dressing and grooming, 2) arising, 3) eating, 4) walking, 5) hygiene, 6) reach, 7) grip, and 8) common daily activities. For each of these categories, patients report the amount of difficulty they have in performing two or three specific activities.
There are four possible responses for the Disability Index questions: • Without any difficulty=0 • With some difficulty=1 • With much difficulty=2 • Unable to do=3 • The highest score reported by the patient for any component question of the eight categories determines the score for that category. • If a component question is left blank or the response is too ambiguous to assign a score, then the score for that category is determined by the remaining completed question(s). • If all component questions are blank or if more than one answer is given, then follow up with the respondent is required. • If the respondent's mark is between the response columns, then move it to the closest one. If it's directly between the two, move it to the higher one.
The aid and device variables are not used to calculate the alternative disability index; it is calculated by adding the scores for each of the categories and dividing by the number of categories answered. This gives a score in the 0 to 3 range.

[3] = pooled Cilnidipine 20 mg and Cilnidipine 20 mg + Tadalafil 5 mg
[4] = pooled cilnidipine 10 mg and 20 mg arms (combination: + tadalafil 5 mg)
[5] = Any Cilnidipine (N = 17), Day 12, PP Population, Part A
[6] = Cilnidipine 10 mg, SSc patients, PP, Part A
[7] = Cilnidipine 20 mg, SSc patients, PP, Part A
[8] = Pooled Cilnidipine 10 mg and Cilnidipine 10 mg + Tadalafil 5 mg (N = 9), Day 12, PP Population, Part A
[9] = Pooled Cilnidipine (N = 8), Day 12, PP Population, Part A

COCCOC(=O)C1=C(C)NC(C)=C(C(=O)OC/C=C/c2ccccc2)C1c1cccc([N+](=O)[O-])c1 (stereo not shown) [Cilnidipine]
VAS Pain Day 12 Q3 (participants with SSc-RP [1]; [3]): 2.200
VAS Pain Percent Change from Baseline Max (participants with SSc-RP [1]; [3]): 20.5%
VAS Pain Percent Change from Baseline Median (participants with SSc-RP [1]; [3]): −51.06%
VAS Pain Percent Change from Baseline Min (participants with SSc-RP [1]; [3]): −58.6, %
VAS Pain Percent Change from Baseline Q1 (participants with SSc-RP [1]; [3]): −55.56, %
VAS Pain Percent Change from Baseline Q3 (participants with SSc-RP [1]; [3]): −4.55%
VAS Pain Change from Baseline Max (participants with SSc-RP [1]; [4]): 0.30
VAS Pain Change from Baseline Median (participants with SSc-RP [1]; [4]): −0.500
VAS Pain Change from Baseline Min (participants with SSc-RP [1]; [4]): −2.00,
VAS Pain Change from Baseline Q1 (participants with SSc-RP [1]; [4]): −0.800,
VAS Pain Change from Baseline Q3 (participants with SSc-RP [1]; [4]): 0.000
VAS Pain Day 12 Max (participants with SSc-RP [1]; [4]): 3.60
VAS Pain Day 12 Median (participants with SSc-RP [1]; [4]): 1.000
VAS Pain Day 12 Min (participants with SSc-RP [1]; [4]): 0.00,
VAS Pain Day 12 Q1 (participants with SSc-RP [1]; [4]): 0.400,
VAS Pain Day 12 Q3 (participants with SSc-RP [1]; [4]): 2.900
VAS Pain Percent Change from Baseline Max (participants with SSc-RP [1]; [4]): 11.5%
VAS Pain Percent Change from Baseline Min (participants with SSc-RP [1]; [4]): −55.6, %
VAS Pain Percent Change from Baseline Q1 (participants with SSc-RP [1]; [4]): −53.33, %
VAS Pain Percent Change from Baseline Q3 (participants with SSc-RP [1]; [4]): 0.00%
SHAQ Alternative Disability Index, Change from Baseline, Mean (SD) (participants with SSc-RP [2]; [5]): −0.006 (0.1912)
SHAQ Alternative Disability Index, Change from Baseline, Median (participants with SSc-RP [2]; [5]): 0.000
SHAQ Alternative Disability Index, In-Clinic Visit (Day 12), Mean (SD) (participants with SSc-RP [2]; [5]): 0.450 (0.4926)
SHAQ Alternative Disability Index, In-Clinic Visit (Day 12), Median (participants with SSc-RP [2]; [5]): 0.250
SHAQ Alternative Disability Index, Percent Change from Baseline, Mean (SD) (participants with SSc-RP [2]; [5]): 21.32 (100.525) %
SHAQ Alternative Disability Index, Percent Change from Baseline, Median (participants with SSc-RP [2]; [5]): −10.00%
SHAQ Alternative Disability Index, Change from Baseline, Max (participants with SSc-RP [2]; [6]): 0.38
SHAQ Alternative Disability Index, Change from Baseline, Mean (participants with SSc-RP [2]; [6]): 0.063
SHAQ Alternative Disability Index, Change from Baseline, Median (participants with SSc-RP [2]; [6]): 0.000
SHAQ Alternative Disability Index, Change from Baseline, Min (participants with SSc-RP [2]; [6]): −0.13,
SHAQ Alternative Disability Index, Change from Baseline, Q1 (participants with SSc-RP [2]; [6]): −0.063,
SHAQ Alternative Disability Index, Change from Baseline, Q3 (participants with SSc-RP [2]; [6]): 0.188
SHAQ Alternative Disability Index, Day 12, Max (participants with SSc-RP [2]; [6]): 1.25
SHAQ Alternative Disability Index, Day 12, Mean (participants with SSc-RP [2]; [6]): 0.563
SHAQ Alternative Disability Index, Day 12, Median (participants with SSc-RP [2]; [6]): 0.500
SHAQ Alternative Disability Index, Day 12, Min (participants with SSc-RP [2]; [6]): 0.00,
SHAQ Alternative Disability Index, Day 12, Q1 (participants with SSc-RP [2]; [6]): 0.000,
SHAQ Alternative Disability Index, Percent Change from Baseline, Max (participants with SSc-RP [2]; [6]): 42.9
SHAQ Alternative Disability Index, Percent Change from Baseline, Mean (participants with SSc-RP [2]; [6]): 15.87
SHAQ Alternative Disability Index, Percent Change from Baseline, Median (participants with SSc-RP [2]; [6]): 15.87
SHAQ Alternative Disability Index, Percent Change from Baseline, Min (participants with SSc-RP [2]; [6]): −11.1,
SHAQ Alternative Disability Index, Percent Change from Baseline, Q1 (participants with SSc-RP [2]; [6]): −11.11,
SHAQ Alternative Disability Index, Percent Change from Baseline, Q3 (participants with SSc-RP [2]; [6]): 42.86
% change in Alternative Disability Index (participants with SSc-RP [2]; Cilnidipine 20 mg (n = 3)): −42%
SHAQ Alternative Disability Index, Change from Baseline, Max (participants with SSc-RP [2]; [7]): 0.25
SHAQ Alternative Disability Index, Change from Baseline, Mean (participants with SSc-RP [2]; [7]): 0.000
SHAQ Alternative Disability Index, Change from Baseline, Median (participants with SSc-RP [2]; [7]): −0.063
SHAQ Alternative Disability Index, Change from Baseline, Min (participants with SSc-RP [2]; [7]): −0.13,
SHAQ Alternative Disability Index, Day 12, Max (participants with SSc-RP [2]; [7]): 0.50
SHAQ Alternative Disability Index, Day 12, Mean (participants with SSc-RP [2]; [7]): 0.219
SHAQ Alternative Disability Index, Day 12, Median (participants with SSc-RP [2]; [7]): 0.188
SHAQ Alternative Disability Index, Day 12, Min (participants with SSc-RP [2]; [7]): 0.00,
SHAQ Alternative Disability Index, Day 12, Q1 (participants with SSc-RP [2]; [7]): 0.063,
SHAQ Alternative Disability Index, Day 12, Q3 (participants with SSc-RP [2]; [7]): 0.375
SHAQ Alternative Disability Index, Percent Change from Baseline, Max (participants with SSc-RP [2]; [7]): 100.0
SHAQ Alternative Disability Index, Percent Change from Baseline, Mean (participants with SSc-RP [2]; [7]): 5.56
SHAQ Alternative Disability Index, Percent Change from Baseline, Median (participants with SSc-RP [2]; [7]): −33.33
SHAQ Alternative Disability Index, Percent Change from Baseline, Min (participants with SSc-RP [2]; [7]): −50.0,
SHAQ Alternative Disability Index, Percent Change from Baseline, Q1 (participants with SSc-RP [2]; [7]): −50.00,
SHAQ Alternative Disability Index, Percent Change from Baseline, Q3 (participants with SSc-RP [2]; [7]): 100.00
alternative disability index, Change from Baseline, Mean (participants with SSc-RP [2]; Day 12, dose cilnidipine 10 mg): 0.063
alternative disability index, Change from Baseline, Median (participants with SSc-RP [2]; Day 12, dose cilnidipine 10 mg): 0.000
alternative disability index, Percent Change from Baseline, Mean (participants with SSc-RP [2]; Day 12, dose cilnidipine 10 mg): 15.87%
alternative disability index, Percent Change from Baseline, Median (participants with SSc-RP [2]; Day 12, dose cilnidipine 10 mg): 15.87%
alternative disability index, Change from Baseline, Mean (participants with SSc-RP [2]; Day 12, dose cilnidipine 20 mg): −0.083
alternative disability index, Change from Baseline, Median (participants with SSc-RP [2]; Day 12, dose cilnidipine 20 mg): −0.125
alternative disability index, Percent Change from Baseline, Mean (participants with SSc-RP [2]; Day 12, dose cilnidipine 20 mg): −41.67%
alternative disability index, Percent Change from Baseline, Median (participants with SSc-RP [2]; Day 12, dose cilnidipine 20 mg): −41.67%
alternative disability index, In Clinic Visit (Day 12), Mean (participants with SSc-RP [2]; dose cilnidipine 10 mg): 0.563
alternative disability index, In Clinic Visit (Day 12), Median (participants with SSc-RP [2]; dose cilnidipine 10 mg): 0.500
alternative disability index, In Clinic Visit (Day 12), Mean (participants with SSc-RP [2]; dose cilnidipine 20 mg): 0.125
alternative disability index, In Clinic Visit (Day 12), Median (participants with SSc-RP [2]; dose cilnidipine 20 mg): 0.125
SHAQ Alternative Disability Index, Change from Baseline, Mean (participants with SSc-RP [2]; [8]): 0.021
SHAQ Alternative Disability Index, Percent Change from Baseline, Median (participants with SSc-RP [2]; [8]): −10.00%
SHAQ Alternative Disability Index, Change from Baseline, Mean (participants with SSc-RP [2]; Pooled Cilnidipine 20 mg and Cilnidipine 20 mg + Tadalafil 5 mg (N = 8), Day 12, PP Population, Part A): −0.036
SHAQ Alternative Disability Index, Change from Baseline, Mean (participants with SSc-RP [2]; [9]): 0.031
SHAQ Alternative Disability Index, Change from Baseline, Mean (SD) (participants with SSc-RP [2]; [9]): 0.031 (0.1860)
SHAQ Alternative Disability Index, In-Clinic Visit (Day 12), Mean (SD) (participants with SSc-RP [2]; [9]): 0.391 (0.4884)
SHAQ Alternative Disability Index, Percent Change from Baseline, Mean (SD) (participants with SSc-RP [2]; [9]): 9.68 (61.446) %
SHAQ Alternative Disability Index, Percent Change from Baseline, Median (participants with SSc-RP [2]; [9]): −11.11%
% change in Alternative Disability Index (participants with SSc-RP [2]; Pooled Cilnidipine (n = 7)): −13%
% Δ from baseline, alternative disability mean (participants with SSc-RP [2]; Pooled cilnidipine (n=4)): −12.9%
